Results on 3 molecules are retold here after US6528500B1, “Azole derivatives or salts thereof” (SSP Co., Ltd., priority 1999, dated 2003).

Molecules are shown by their SMILES. Converted amounts (≈) assume the structure as drawn. Structures can show the parent of a compound that is named as a salt.

Series [1] relates to C. albicans IFM 40009. Kind of series: In vivo activities against the Candida albicans murine model. As to conditions: male ICR mice, C. albicans IFM 40009 3×10^6 cells/mouse i.v.; 1 mg/kg intravenously once daily for 4 days; observed 14 days; ***P < 0.001 relative to Infection control. How it is done:
Four-week-old male ICR mice were fasted for 6 hours. The mice were inoculated at 3×10^6 cells/mouse of C. albicans IFM 40009 into the tail vein. The infection control group and the drug-treated group consisted of 10 and 5 animals, respectively. The compound of Example 1 and the parent compound were dissolved in 20% polyethylene glycol 200. The drug solutions were intravenously administered at the dose of 1 mg/kg once daily for 4 consecutive days after infection. […] Paired comparison of duration of survival between the infection control and drug-treated groups were analyzed by Log-Rank test.

Series [2] is described as follows: Aqueous solubility comparison. The settings on record: water (aqueous solubility), parent compound in the form of a free base. The format is physicochemical. From the text: The compound obtained in Example 1 was compared in aqueous solubility with a parent (non-phosphorylated) compound (in the form of a free base).

`CS(=O)(=O)C(F)(F)C(Cn1cncn1)(OP(=O)(O)O)c1ccc(F)cc1F` (centres unmarked) (as salt: phosphate) yielded a melting point of 216 to 218 °C. On to `CCS(=O)(=O)C(F)(F)C(Cn1cncn1)(OP(=O)(O)O)c1ccc(F)cc1F` (single isomer, unassigned; (+)) [Example 1, (+)-1-(2,4-difluorophenyl)-2-(ethylsulfonyl)-2,2-difluoro-1-(1H-1,2,4-triazole-1-ylmethyl)ethyl Dihydrogen Phosphate], for which the Average surviving days in series [1] is 14.0*** days. In addition, the solubility in series [2] came to 4800 µg/mL. For `CCS(=O)(=O)C(F)(F)C(O)(Cn1cncn1)c1ccc(F)cc1F` (single isomer, unassigned; (-)) [Parent compound, (−)-2-(2,4-difluorophenyl)-1-(ethylsulfonyl)-1,1-difluoro-3-(1H-1,2,4-triazol-1-yl)-2-propanol, reference compound], the Average surviving days in series [1] is reported as 14.0*** days. Moreover, the solubility in series [2] was 500 µg/mL (≈ 1360 µM).
